Data reported in article doi:10.1101/2022.02.23.481604v2 (biorxiv, 2022).
Structures can show the parent of a compound that is named as a salt. Each block holds one molecule with its values, some of them ahead of it.

Key:
Experiment in all cases: cAMP formation in membranes
[1] = target: T1, mAC7 (Homo sapiens, UniProt P51828); assay type: biochemical
T1 sequence (P51828 1-1080): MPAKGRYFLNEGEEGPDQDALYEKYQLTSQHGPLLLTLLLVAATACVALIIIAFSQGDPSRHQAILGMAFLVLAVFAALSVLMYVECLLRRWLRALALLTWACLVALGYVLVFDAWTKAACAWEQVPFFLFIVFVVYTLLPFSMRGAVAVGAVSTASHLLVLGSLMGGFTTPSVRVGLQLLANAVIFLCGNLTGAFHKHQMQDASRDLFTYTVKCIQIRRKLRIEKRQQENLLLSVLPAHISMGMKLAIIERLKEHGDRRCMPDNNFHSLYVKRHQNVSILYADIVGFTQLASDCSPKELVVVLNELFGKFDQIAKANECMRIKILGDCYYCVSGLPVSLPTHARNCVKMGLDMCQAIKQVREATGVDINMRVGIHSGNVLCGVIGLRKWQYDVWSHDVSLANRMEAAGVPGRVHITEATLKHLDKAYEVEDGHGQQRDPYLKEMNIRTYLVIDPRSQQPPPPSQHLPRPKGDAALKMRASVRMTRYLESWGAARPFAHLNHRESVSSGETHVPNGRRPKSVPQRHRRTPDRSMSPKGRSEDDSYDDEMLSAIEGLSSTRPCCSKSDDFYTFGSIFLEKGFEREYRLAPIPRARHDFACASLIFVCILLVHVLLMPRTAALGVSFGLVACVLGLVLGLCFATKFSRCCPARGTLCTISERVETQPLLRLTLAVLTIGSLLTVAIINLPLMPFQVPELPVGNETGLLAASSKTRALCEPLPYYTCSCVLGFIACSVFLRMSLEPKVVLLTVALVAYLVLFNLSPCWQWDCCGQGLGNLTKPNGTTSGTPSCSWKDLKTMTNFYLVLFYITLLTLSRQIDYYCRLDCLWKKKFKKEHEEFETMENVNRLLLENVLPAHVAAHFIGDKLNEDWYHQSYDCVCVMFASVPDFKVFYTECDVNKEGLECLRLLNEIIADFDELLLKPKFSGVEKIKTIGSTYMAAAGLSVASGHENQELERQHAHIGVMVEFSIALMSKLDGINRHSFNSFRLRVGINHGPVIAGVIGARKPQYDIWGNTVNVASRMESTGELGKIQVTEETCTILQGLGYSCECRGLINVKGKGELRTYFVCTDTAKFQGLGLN

[2] = target: mAC1 (Homo sapiens, UniProt Q08828); assay type: biochemical
[3] = target: mAC3 activated by Gsα (Q227L) (Homo sapiens, UniProt O60266); assay type: biochemical
[4] = target: mAC9 activated by Gsα (Q227L) (Homo sapiens, UniProt O60503); assay type: biochemical
[5] = target: mAC6 activated by Gsα (Q227L) (Homo sapiens, UniProt O43306); assay type: biochemical
[6] = target: mAC7 activated by Gsα (Q227L) (Homo sapiens, UniProt P51828); assay type: biochemical
[7] = substrate: Nc1ncnc2c1ncn2[C@@H]1O[C@H](COP(=O)(O)OP(=O)(O)OP(=O)(O)O)[C@@H](O)[C@H]1O; assay type: biochemical, Homo sapiens; conditions: without SDPA, Gsα presence inferred from Vmax, Mg2+, pH 7.5

mAC3 activated by Gsα (Q227L), sequence (P63092 2-394 Q227L partner, one chain of several): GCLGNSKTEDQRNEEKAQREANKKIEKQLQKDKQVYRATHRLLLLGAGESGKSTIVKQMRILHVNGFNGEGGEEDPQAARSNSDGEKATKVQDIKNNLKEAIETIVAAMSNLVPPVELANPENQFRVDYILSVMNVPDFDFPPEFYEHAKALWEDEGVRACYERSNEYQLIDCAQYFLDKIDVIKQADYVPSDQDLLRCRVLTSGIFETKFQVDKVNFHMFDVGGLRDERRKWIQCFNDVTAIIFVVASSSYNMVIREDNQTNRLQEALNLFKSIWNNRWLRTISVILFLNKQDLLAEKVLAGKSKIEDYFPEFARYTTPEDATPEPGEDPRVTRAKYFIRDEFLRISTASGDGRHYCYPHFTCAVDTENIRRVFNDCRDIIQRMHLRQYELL
mAC9 activated by Gsα (Q227L), sequence (O60503 whole entry, stated change not applied): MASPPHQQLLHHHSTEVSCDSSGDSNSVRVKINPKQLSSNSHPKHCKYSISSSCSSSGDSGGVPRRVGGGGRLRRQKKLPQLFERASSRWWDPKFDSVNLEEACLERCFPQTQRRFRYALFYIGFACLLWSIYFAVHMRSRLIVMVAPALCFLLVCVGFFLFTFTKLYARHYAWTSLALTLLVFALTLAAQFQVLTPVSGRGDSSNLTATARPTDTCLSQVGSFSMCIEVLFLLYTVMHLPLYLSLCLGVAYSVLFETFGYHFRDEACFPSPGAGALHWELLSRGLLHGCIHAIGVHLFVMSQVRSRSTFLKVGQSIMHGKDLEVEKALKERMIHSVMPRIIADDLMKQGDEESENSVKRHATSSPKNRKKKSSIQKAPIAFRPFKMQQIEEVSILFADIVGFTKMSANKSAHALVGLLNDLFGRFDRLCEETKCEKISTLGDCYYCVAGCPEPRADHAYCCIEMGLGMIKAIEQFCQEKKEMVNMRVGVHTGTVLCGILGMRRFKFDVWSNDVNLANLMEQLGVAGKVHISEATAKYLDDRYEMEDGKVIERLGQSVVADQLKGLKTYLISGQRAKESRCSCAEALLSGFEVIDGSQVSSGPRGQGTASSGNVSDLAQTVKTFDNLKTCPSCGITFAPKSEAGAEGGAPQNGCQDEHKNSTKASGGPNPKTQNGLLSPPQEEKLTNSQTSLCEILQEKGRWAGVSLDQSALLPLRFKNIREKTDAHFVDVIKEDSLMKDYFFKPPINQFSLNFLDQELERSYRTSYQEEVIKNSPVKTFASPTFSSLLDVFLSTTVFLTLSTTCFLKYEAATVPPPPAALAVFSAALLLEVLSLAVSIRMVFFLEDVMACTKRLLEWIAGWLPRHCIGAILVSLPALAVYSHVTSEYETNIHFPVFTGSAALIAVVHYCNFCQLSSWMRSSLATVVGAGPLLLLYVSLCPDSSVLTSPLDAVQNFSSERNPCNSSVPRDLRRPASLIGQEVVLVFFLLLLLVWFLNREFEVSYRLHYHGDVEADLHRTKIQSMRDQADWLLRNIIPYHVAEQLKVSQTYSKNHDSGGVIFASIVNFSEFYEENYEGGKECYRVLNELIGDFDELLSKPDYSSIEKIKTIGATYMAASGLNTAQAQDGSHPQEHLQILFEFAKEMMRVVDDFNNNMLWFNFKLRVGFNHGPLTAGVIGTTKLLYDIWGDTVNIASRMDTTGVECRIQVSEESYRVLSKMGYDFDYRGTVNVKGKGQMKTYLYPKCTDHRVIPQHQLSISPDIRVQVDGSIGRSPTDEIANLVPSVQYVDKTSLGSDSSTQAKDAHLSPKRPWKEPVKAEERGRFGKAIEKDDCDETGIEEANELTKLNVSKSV
mAC9 activated by Gsα (Q227L), sequence (P63092 2-394 Q227L partner): as the sequence (P63092 2-394 Q227L partner, one chain of several) above
mAC7 activated by Gsα (Q227L), sequence (P63092 2-394 Q227L partner, one chain of several): as above
mAC6 activated by Gsα (Q227L), sequence (O43306 whole entry, stated change not applied): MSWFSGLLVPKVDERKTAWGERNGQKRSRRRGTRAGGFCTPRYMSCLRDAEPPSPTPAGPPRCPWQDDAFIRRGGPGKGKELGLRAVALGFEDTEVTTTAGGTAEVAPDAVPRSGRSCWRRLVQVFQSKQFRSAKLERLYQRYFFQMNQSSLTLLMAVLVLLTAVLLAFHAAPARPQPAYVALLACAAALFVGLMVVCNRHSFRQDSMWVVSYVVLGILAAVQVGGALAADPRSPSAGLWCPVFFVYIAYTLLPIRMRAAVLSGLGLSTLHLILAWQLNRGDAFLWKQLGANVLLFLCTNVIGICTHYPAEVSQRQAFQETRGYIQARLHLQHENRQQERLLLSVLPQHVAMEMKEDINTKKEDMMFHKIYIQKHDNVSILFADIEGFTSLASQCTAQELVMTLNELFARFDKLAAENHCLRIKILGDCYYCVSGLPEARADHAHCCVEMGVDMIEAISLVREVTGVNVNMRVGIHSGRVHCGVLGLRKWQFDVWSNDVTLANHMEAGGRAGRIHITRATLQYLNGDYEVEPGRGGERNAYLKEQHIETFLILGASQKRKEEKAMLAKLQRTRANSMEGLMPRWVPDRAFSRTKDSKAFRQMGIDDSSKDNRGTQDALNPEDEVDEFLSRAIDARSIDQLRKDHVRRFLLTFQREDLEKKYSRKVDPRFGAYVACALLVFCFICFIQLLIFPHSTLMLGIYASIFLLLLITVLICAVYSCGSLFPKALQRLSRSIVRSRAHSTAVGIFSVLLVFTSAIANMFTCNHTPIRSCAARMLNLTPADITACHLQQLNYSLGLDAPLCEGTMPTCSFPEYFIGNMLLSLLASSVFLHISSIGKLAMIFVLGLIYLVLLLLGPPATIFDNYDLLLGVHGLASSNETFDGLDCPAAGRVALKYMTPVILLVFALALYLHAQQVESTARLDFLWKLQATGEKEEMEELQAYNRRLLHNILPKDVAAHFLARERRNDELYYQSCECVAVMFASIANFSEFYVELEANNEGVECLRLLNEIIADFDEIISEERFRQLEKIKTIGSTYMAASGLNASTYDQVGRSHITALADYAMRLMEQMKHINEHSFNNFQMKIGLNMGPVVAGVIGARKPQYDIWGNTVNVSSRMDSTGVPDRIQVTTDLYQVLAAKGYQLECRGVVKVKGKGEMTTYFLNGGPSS
mAC6 activated by Gsα (Q227L), sequence (P63092 2-394 Q227L partner): as the sequence (P63092 2-394 Q227L partner, one chain of several) above
mAC1, sequence (Q08828 whole entry): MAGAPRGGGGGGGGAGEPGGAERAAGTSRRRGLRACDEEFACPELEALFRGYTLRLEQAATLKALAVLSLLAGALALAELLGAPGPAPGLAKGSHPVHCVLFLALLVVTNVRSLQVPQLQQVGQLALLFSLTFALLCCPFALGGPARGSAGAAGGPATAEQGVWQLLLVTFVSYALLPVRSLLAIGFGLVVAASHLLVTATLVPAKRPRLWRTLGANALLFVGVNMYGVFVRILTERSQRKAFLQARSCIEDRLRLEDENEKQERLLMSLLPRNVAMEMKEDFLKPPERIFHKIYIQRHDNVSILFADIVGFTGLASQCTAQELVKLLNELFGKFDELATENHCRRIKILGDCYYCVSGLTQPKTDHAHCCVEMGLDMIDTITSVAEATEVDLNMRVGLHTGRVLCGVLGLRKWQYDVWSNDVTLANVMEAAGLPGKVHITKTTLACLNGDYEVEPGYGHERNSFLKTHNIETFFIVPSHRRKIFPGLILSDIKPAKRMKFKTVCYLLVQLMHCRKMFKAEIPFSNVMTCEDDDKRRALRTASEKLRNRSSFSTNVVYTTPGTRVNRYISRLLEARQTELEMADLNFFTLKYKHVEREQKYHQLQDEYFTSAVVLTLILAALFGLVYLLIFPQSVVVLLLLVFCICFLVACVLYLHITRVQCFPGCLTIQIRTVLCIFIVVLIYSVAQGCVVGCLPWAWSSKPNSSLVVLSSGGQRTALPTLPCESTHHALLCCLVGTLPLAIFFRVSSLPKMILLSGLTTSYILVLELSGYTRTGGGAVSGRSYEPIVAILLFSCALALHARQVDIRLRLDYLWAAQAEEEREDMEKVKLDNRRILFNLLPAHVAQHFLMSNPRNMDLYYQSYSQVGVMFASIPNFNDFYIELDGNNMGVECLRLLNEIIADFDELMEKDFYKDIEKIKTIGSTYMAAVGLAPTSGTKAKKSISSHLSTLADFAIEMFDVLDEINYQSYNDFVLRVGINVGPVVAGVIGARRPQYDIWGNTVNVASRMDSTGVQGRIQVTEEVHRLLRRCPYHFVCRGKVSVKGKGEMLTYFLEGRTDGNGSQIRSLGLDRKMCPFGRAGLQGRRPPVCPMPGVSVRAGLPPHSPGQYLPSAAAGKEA

Molecule: CC/C=C\C/C=C\C/C=C\C/C=C\C/C=C\C/C=C\CCC(=O)O[C@H](COC(=O)CCCCCCCCCCCCCCC)COP(=O)(O)O [PDPA, 1-palmitoyl-2-docosahexaenoyl-sn-glycero-3-phosphate (sodium salt)]
EC50 [3]: 1300 nM

Molecule: CC/C=C\C/C=C\C/C=C\C/C=C\C/C=C\C/C=C\CCC(=O)O[C@H](COC(=O)CCCCCCCCCCCCCCCCC)COP(=O)(O)OC[C@H](N)C(=O)O [SDPS, 1-stearoyl-2-docosahexaenoyl-sn-glycero-3-phospho-L-serine]
EC50 [3]: 1200 nM

Molecule: CCCCC/C=C\C/C=C\C/C=C\C/C=C\CCCC(=O)O[C@H](COC(=O)CCCCCCCCCCCCCCCCC)COP(=O)(O)O [SAPA, 1-stearoyl-2-arachidonoyl-sn-glycero-3-phosphate (sodium salt)]
EC50 [3]: 4800 nM

B1: mAC3 activated by Gsα (Q227L) (Homo sapiens) (protein)
chain: MPRNQGFSEPEYSAEYSAEYSVSLPSDPDRGVGRTHEISVRNSGSCLCLPRFMRLTFVPESLENLYQTYFKRQRHETLLVLVVFAALFDCYVVVMCAVVFSSDKLASLAVAGIGLVLDIILFVLCKKGLLPDRVTRRVLPYVLWLLITAQIFSYLGLNFARAHAASDTVGWQVFFVFSFFITLPLSLSPIVIISVVSCVVHTLVLGVTVAQQQQEELKGMQLLREILANVFLYLCAIAVGIMSYYMADRKHRKAFLEARQSLEVKMNLEEQSQQQENLMLSILPKHVADEMLKDMKKDESQKDQQQFNTMYMYRHENVSILFADIVGFTQLSSACSAQELVKLLNELFARFDKLAAKYHQLRIKILGDCYYCICGLPDYREDHAVCSILMGLAMVEAISYVREKTKTGVDMRVGVHTGTVLGGVLGQKRWQYDVWSTDVTVANKMEAGGIPGRVHISQSTMDCLKGEFDVEPGDGGSRCDYLEEKGIETYLIIASKPEVKKTATQNGLNGSALPNGAPASSKSSSPALIETKEPNGSAHSSGSTSEKPEEQDAQADNPSFPNPRRRLRLQDLADRVVDASEDEHELNQLLNEALLERESAQVVKKRNTFLLSMRFMDPEMETRYSVEKEKQSGAAFSCSCVVLLCTALVEILIDPWLMTNYVTFMVGEILLLILTICSLAAIFPRAFPKKLVAFSTWIDRTRWARNTWAMLAIFILVMANVVDMLSCLQYYTGPSNATAGMETEGSCLENPKYYNYVAVLSLIATIMLVQVSHMVKLTLMLLVAGAVATINLYAWRPVFDEYDHKRFREHDLPMVALEQMQGFNPGLNGTDRLPLVPSKYSMTVMVFLMMLSFYYFSRHVEKLARTLFLWKIEVHDQKERVYEMRRWNEALVTNMLPEHVARHFLGSKKRDEELYSQTYDEIGVMFASLPNFADFYTEESINNGGIECLRFLNEIISDFDSLLDNPKFRVITKIKTIGSTYMAASGVTPDVNTNGFASSNKEDKSERERWQHLADLADFALAMKDTLTNINNQSFNNFMLRIGMNKGGVLAGVIGARKPHYDIWGNTVNVASRMESTGVMGNIQVVEETQVILREYGFRFVRRGPIFVKGKGELLTFFLKGRDKLATFPNGPSVTLPHQVVDNS
Km [7]: 100 µM

Other lines, results leading:

EC50 [1]: 512000 nM
EC50 [2]: 2000 nM
Molecule: C=C[C@@]1(C)CC(=O)[C@]2(O)[C@@]3(C)[C@@H](O)CCC(C)(C)[C@@H]3[C@H](O)[C@H](OC(C)=O)[C@@]2(C)O1 [forskolin]

EC50 [3]: 1400 nM
Molecule: CC/C=C\C/C=C\C/C=C\C/C=C\C/C=C\C/C=C\CCC(=O)OC[C@H](COP(=O)(O)O)OC(=O)CC/C=C\C/C=C\C/C=C\C/C=C\C/C=C\C/C=C\CC [DDPA, 1,2-didocosahexaenoyl-sn-glycero-3-phosphate (sodium salt)]

EC50 [4]: 700 nM
EC50 [3]: 900 nM
EC50 [5]: 700 nM
EC50 [6]: 700 nM
Molecule: CC/C=C\C/C=C\C/C=C\C/C=C\C/C=C\C/C=C\CCC(=O)O[C@H](COC(=O)CCCCCCCCCCCCCCCCC)COP(=O)(O)O [SDPA, 1-stearoyl-2-docosahexaenoyl-sn-glycero-3-phosphate (sodium salt)]
